Experimental data published in patent US8530650B2, “2, 5-diamino-substituted pyrido [4, 3-D] pyrimidines as autotaxin inhibitors against cancer” (MERCK PATENT GmbH, priority 2008, dated 2013).

Target: T1, recombinant autotaxin (Homo sapiens, UniProt Q13822)
T1 construct: made in house; host or cells: Hi5 insect cells (baculovirus)
Experiment: Autotaxin assay (Amplex Red, LPC substrate)
Assay type: biochemical
Conditions: 75 μM LPC, Amplex Red fluorescence, ten 1:3 dilutions starting at 30 μM
Protocol: Autotaxin activity is measured indirectly by means of Amplex Red Reagent. In this course, Amplex Red is measured as fluorogenic indicator for generated H2O2. Autotaxin converts substrate lysophosphatidylcholine (LPC) to phosphocholine and lysophosphatidylic acid (LPA). After the conversion phosphocholine is reacted with alkaline phosphatase to obtain inorganic phosphate and choline. During the next step choline is oxidized with choline oxidase to yield betaine, whereby H2O2 is generated. H2O2 reacts with Amplex Red Reagent in the presence of peroxidase (Horseradish peroxidase) in an 1:1 stochiometry and yields highly fluorescent resorufin. The generated fluorescence is measured in a reaction-dependent kinetic mode in order to enable subtraction of fluorescence signals of possible other fluorescent compounds that are not part of the reaction from total measured fluorescence.
1.5 μl of a standard solution or of the compounds of the invention are dissolved in 20 mM Hepes pH 7.2 with maximally 7.7% DMSO in individual concentrations. The resulting solution is pre-incubated together with 10 μl (16 ng) of highly purified recombinant autotaxin in a black 384-hole microtiter plate for 30 min at 22° C. Thereafter, the reaction is started through the addition of 5 μL-a-lysophosphatidylcholine (LPC), whereby the final concentration of LPC is 75 μM. The mixture is incubated for 90 min. at 37° C. After the incubation Amplex Red Reagent, peroxidase (Horseradish peroxidase) and choline oxidase are added. The fluorescence is immediately measured at a wavelength of 612 nm with an excitation wavelength of 485 nm in a “Tecan Ultra multimode” fluorescence reader. The activity of autotaxin is indirectly calculated via the amount of detected generated H2O2.
For IC50 analysis, ten serial 1:3 dilutions starting at 30 μM for each compound were run in duplicates.
IC50 values were calculated on normalized data. For normalization, control wells were added to each assay plate and the signal of uninhibited control wells was set to 100%, whereas the signal inhibited by 500 μM C14 LPA, (Avanti Polar Lipids, Cat# 857120P) was set to 0%. Curves were fitted and IC50 values calculated by the following model using proprietary analysis software: Y=Bottom+(100−Bottom)/(1+10^((LogIC50−X)*HillSlope))
Where X is the logarithm of concentration. Y is the response; Y starts at Bottom and goes to Top with a sigmoid shape.
Protein: Recombinant autotaxin (baculoviral Hi5 expression)
Substrate: L-a-lysophosphatidyl choline (chicken egg); Avanti Polar Lipids #830071 P
Standard: C14 LPA, Avanti Polar Lipids, Cat# 857120P
Detection Reagent Amplex Red Reagent; Invitrogen #A12222; dissolved in 1.923 ml of DMSO peroxidase Type VI-A (horseradish), Sigma #P6782; dissolved in 7.45 ml of test buffer, Choline Oxidase; Sigma #C5896; dissolved in 2.47 ml test buffer
Detection Reagent Mix: 1:100 dilution of Amplex Red Regent in test buffer
Test buffer: 200 mM Tris-HCl, Merck, Cat # 1.08219, pH 7.9; 0.1% BSA, lipid free, Roche Cat#775835

IC50 [µM] | SMILES
< 5 | CC(C)NC(=O)C1CCN(c2nccc3nc(NCc4ccccc4Cl)ncc23)CC1 [Compound 67, 1-[2-(2-Chloro-benzylamino)-pyrido[4,3-d]pyrimidin-5-yl]-piperidine-4-carboxylic acid isopropylamide]
< 10 | CCCNC(=O)C1CCN(c2nccc3nc(NCc4ccccc4Cl)ncc23)CC1 [Compound 68, 1-[2-(2-Chloro-benzylamino)-pyrido[4,3-d]pyrimidin-5-yl]-piperidine-4-carboxylic acid propylamide]
< 10 | O=C(NC1CC1)C1CCN(c2nccc3nc(NCc4ccccc4Cl)ncc23)CC1 [Compound 69, 1-[2-(2-Chloro-benzylamino)-pyrido[4,3-d]pyrimidin-5-yl]-piperidine-4-carboxylic acid cyclopropylamide]
< 5 | COCCNC(=O)C1CCN(c2nccc3nc(NCc4ccccc4Cl)ncc23)CC1 [Compound 70, 1-[2-(2-Chloro-benzylamino)-pyrido[4,3-d]pyrimidin-5-yl]-piperidine-4-carboxylic acid (2-methoxy-ethyl)-amide]
< 30 | C=CCNC(=O)C1CCN(c2nccc3nc(NCc4ccccc4Cl)ncc23)CC1 [Compound 71, 1-[2-(2-Chloro-benzylamino)-pyrido[4,3-d]pyrimidin-5-yl]-piperidine-4-carboxylic acid allylamide]
< 5 | CCN1CCN(C(=O)C2CCN(c3nccc4nc(NCc5ccccc5Cl)ncc34)CC2)CC1 [Compound 72, {1-[2-(2-Chloro-benzylamino)-pyrido[4,3-d]pyrimidin-5-yl]-piperidin-4-yl}-(4-ethyl-piperazin-1-yl)-methanone]
< 5 | COCCCNC(=O)C1CCN(c2nccc3nc(NCc4ccccc4Cl)ncc23)CC1 [Compound 73, 1-[2-(2-Chloro-benzylamino)-pyrido[4,3-d]pyrimidin-5-yl]-piperidine-4-carboxylic acid (3-methoxy-propyl)-amide]
< 30 | COc1ccccc1CNc1ncc2c(N3CCC(C(=O)NCc4ccco4)CC3)nccc2n1 [Compound 74, 1-[2-(2-Methoxy-benzylamino)-pyrido[4,3-d]pyrimidin-5-yl]-piperidine-4-carboxylic acid (furan-2-ylmethyl)-amide]
< 30 | COCCNC(=O)C1CCN(c2nccc3nc(NCc4ccccc4OC)ncc23)CC1 [Compound 75, 1-[2-(2-Methoxy-benzylamino)-pyrido[4,3-d]pyrimidin-5-yl]-piperidine-4-carboxylic acid (2-methoxy-ethyl)-amide]
< 30 | COc1ccccc1CNc1ncc2c(N3CCC(C(=O)N4CCN(c5ccccn5)CC4)CC3)nccc2n1 [Compound 76, {1-[2-(2-Methoxy-benzylamino)-pyrido[4,3-d]pyrimidin-5-yl]-piperidin-4-yl}-(4-pyridin-2-yl-piperazin-1-yl)-methanone]
< 30 | COc1ccccc1CNc1ncc2c(N3CCC(C(=O)Nc4cc(C)on4)CC3)nccc2n1 [Compound 77, 1-[2-(2-Methoxy-benzylamino)-pyrido[4,3-d]pyrimidin-5-yl]-piperidine-4-carboxylic acid (5-methyl-isoxazol-3-yl)-amide]
< 5 | O=C(Nc1cccnc1)C1CCN(c2nccc3nc(NCc4ccc(Cl)cc4)ncc23)CC1 [Compound 78, 1-[2-(4-Chloro-benzylamino)-pyrido[4,3-d]pyrimidin-5-yl]-piperidine-4-carboxylic acid pyridin-3-ylamide]
< 30 | O=C(NCc1ccco1)C1CCN(c2nccc3nc(NCc4ccc(Cl)cc4)ncc23)CC1 [Compound 79, 1-[2-(4-Chloro-benzylamino)-pyrido[4,3-d]pyrimidin-5-yl]-piperidine-4-carboxylic acid (furan-2-ylmethyl)-amide]
< 5 | O=C(C1CCN(c2nccc3nc(NCc4ccc(Cl)cc4)ncc23)CC1)N1CCCC1 [Compound 80, {1-[2-(4-Chloro-benzylamino)-pyrido[4,3-d]pyrimidin-5-yl]-piperidin-4-yl}-pyrrolidin-1-yl-methanone]
< 5 | O=C(NCc1cccnc1)C1CCCN(c2nccc3nc(NCc4ccccc4Cl)ncc23)C1 (stereo not shown) [Compound 81, 1-[2-(2-Chloro-benzylamino)-pyrido[4,3-d]pyrimidin-5-yl]-piperidine-3-carboxylic acid (pyridin-3-ylmethyl)-amide]
< 5 | O=C(Nc1cccnc1)C1CCCN(c2nccc3nc(NCc4ccccc4Cl)ncc23)C1 (stereo not shown) [Compound 82, 1-[2-(2-Chloro-benzylamino)-pyrido[4,3-d]pyrimidin-5-yl]-piperidine-3-carboxylic acid pyridin-3-ylamide]
< 30 | O=C(NCc1ccco1)C1CCCN(c2nccc3nc(NCc4ccccc4Cl)ncc23)C1 (stereo not shown) [Compound 83, 1-[2-(2-Chloro-benzylamino)-pyrido[4,3-d]pyrimidin-5-yl]-piperidine-3-carboxylic acid (furan-2-ylmethyl)-amide]
< 5 | CC(C)NC(=O)C1CCCN(c2nccc3nc(NCc4ccccc4Cl)ncc23)C1 (stereo not shown) [Compound 84, 1-[2-(2-Chloro-benzylamino)-pyrido[4,3-d]pyrimidin-5-yl]-piperidine-3-carboxylic acid isopropylamide]
< 30 | CCCNC(=O)C1CCCN(c2nccc3nc(NCc4ccccc4Cl)ncc23)C1 (stereo not shown) [Compound 85, 1-[2-(2-Chloro-benzylamino)-pyrido[4,3-d]pyrimidin-5-yl]-piperidine-3-carboxylic acid propylamide]
< 5 | O=C(NC1CC1)C1CCCN(c2nccc3nc(NCc4ccccc4Cl)ncc23)C1 (stereo not shown) [Compound 86, 1-[2-(2-Chloro-benzylamino)-pyrido[4,3-d]pyrimidin-5-yl]-piperidine-3-carboxylic acid cyclopropylamide]
< 30 | Cc1cc(NC(=O)C2CCCN(c3nccc4nc(NCc5ccccc5Cl)ncc34)C2)no1 (stereo not shown) [Compound 87, 1-[2-(2-Chloro-benzylamino)-pyrido[4,3-d]pyrimidin-5-yl]-piperidine-3-carboxylic acid (5-methyl-isoxazol-3-yl)-amide]
< 10 | CCOCCCNC(=O)C1CCCN(c2nccc3nc(NCc4ccccc4Cl)ncc23)C1 (stereo not shown) [Compound 88, 1-[2-(2-Chloro-benzylamino)-pyrido[4,3-d]pyrimidin-5-yl]-piperidine-3-carboxylic acid (3-ethoxy-propyl)-amide]
< 5 | CCN1CCN(C(=O)C2CCCN(c3nccc4nc(NCc5ccccc5Cl)ncc34)C2)CC1 (stereo not shown) [Compound 89, {1-[2-(2-Chloro-benzylamino)-pyrido[4,3-d]pyrimidin-5-yl]-piperidin-3-yl}-(4-ethyl-piperazin-1-yl)-methanone]
< 30 | COCCCNC(=O)C1CCCN(c2nccc3nc(NCc4ccccc4Cl)ncc23)C1 (stereo not shown) [Compound 90, 1-[2-(2-Chloro-benzylamino)-pyrido[4,3-d]pyrimidin-5-yl]-piperidine-3-carboxylic acid (3-methoxy-propyl)-amide]
< 30 | CCN(CC)C(=O)C1CCCN(c2nccc3nc(NCc4ccccc4Cl)ncc23)C1 (stereo not shown) [Compound 91, 1-[2-(2-Chloro-benzylamino)-pyrido[4,3-d]pyrimidin-5-yl]-piperidine-3-carboxylic acid diethylamide]
< 10 | CCOC(=O)CCNC(=O)C1CCCN(c2nccc3nc(NCc4ccccc4Cl)ncc23)C1 (stereo not shown) [Compound 92, 3-({1-[2-(2-Chloro-benzylamino)-pyrido[4,3-d]pyrimidin-5-yl]-piperidine-3-carbonyl}-amino)-propionic acid ethyl ester]
< 30 | Cc1ccc(CNc2ncc3c(N4CCCC(C(=O)Nc5cccnc5)C4)nccc3n2)cc1 (stereo not shown) [Compound 93, 1-[2-(4-Methyl-benzylamino)-pyrido[4,3-d]pyrimidin-5-yl]-piperidine-3-carboxylic acid pyridin-3-ylamide]
< 10 | O=C(C1CCCN(c2nccc3nc(NCc4ccc(Cl)cc4)ncc23)C1)N1CCN(c2ccccn2)CC1 (stereo not shown) [Compound 94, {1-[2-(4-Chloro-benzylamino)-pyrido[4,3-d]pyrimidin-5-yl]-piperidin-3-yl}-(4-pyridin-2-yl-piperazin-1-yl)-methanone]
